Values quoted from earlier work, collected in patent US20220125818A1, “COMPOSITIONS AND METHODS FOR TREATMENT OF A CORONAVIRUS DISEASE (COVID-19) INFECTION” (priority 2020, published 2022).

Target: T1, COX-1 (Homo sapiens, UniProt P23219)
T1 construct: endogenous in cells; host or cells: platelets (in vivo)
Conditions: average platelet lifespan

T1 sequence (P23219 24-599): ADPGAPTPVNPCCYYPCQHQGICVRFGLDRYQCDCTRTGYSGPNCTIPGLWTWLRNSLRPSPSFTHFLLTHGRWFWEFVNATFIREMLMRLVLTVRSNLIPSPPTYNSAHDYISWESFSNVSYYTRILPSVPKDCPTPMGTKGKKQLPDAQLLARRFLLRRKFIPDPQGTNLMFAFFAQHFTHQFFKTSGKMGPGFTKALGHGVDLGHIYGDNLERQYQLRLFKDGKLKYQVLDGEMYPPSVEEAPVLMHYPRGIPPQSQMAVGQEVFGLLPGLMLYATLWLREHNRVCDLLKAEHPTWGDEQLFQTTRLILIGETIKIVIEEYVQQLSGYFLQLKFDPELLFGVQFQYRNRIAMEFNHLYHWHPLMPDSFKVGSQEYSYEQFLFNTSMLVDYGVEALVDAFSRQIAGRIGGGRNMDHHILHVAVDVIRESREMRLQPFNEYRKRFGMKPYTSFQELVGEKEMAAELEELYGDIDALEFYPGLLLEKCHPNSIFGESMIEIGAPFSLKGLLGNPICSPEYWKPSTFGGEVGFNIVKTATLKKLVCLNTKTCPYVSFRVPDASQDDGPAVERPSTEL

Structure (SMILES): CC(=O)Oc1ccccc1C(=O)O [Aspirin®, Acetylsalicylic acid]
- duration of inhibition of platelet aggregation: 7 to 10 days
